# Article PMC8838787, “The Antiproliferative and Apoptotic Effects of a Novel Quinazoline Carrying Substituted-Sulfonamides: In Vitro and Molecular Docking Study” (Molecules, 2022)
# Test system: Bcl-2
# Assay: Western blot, Bcl-2 protein
# Format: cell-based, human
# Conditions: MCF-7, 1.25, 2.5 and 5 μM, 24 h, vs control cells
# Description: We next used reverse transcription polymerase chain reaction (RT-PCR) and Western blot analysis to look at Bax (proapoptotic), Bcl-2 (antiapoptotic) and caspase 7 (executioner caspase) expression at gene and protein level as an additional marker of apoptosis occurrence. In fact, apoptotic cell death is mostly directed by the levels of Bcl-2 family, whether they are pro-apoptotic or antiapoptotic and targeting these molecules as a therapeutic strategy is continuously under development. As predicted, we observed an upregulation in the expression of Bax in MCF-7 treated cells to (1.7-, 2- and 2.4-fold) with compound 4d and to (1.2-, 1.4- and 1.6-fold) with compound 4f at (1.25, 2.5 and 5 µM) respectively (Figure 6). […] This shifting in Bax to Bcl-2 ratio usually started caspases activation which plays a critical role in apoptosis execution. […]
# MCF-7 cells were plated in six well plates at the density of 0.5 × 10^6 and kept for adherence for overnight. […] Total protein was measured by using Bio-Rad Bradford kit and then 35 µg of the total protein was run on a 12% SDS-PAGE and transferred to a nitrocellulose membrane. […] After incubation, membranes were washed three times with TBST buffer and then were ready for immunodetection. […]
row,SMILES,"expression of Bcl-2 protein (Western blot, in words)"
1,"CCc1cccc(NC(=O)CNS(=O)(=O)c2ccc(-n3c(SCC(=O)Nc4cccc(CC)c4)nc4c(OC)cccc4c3=O)cc2)c1 [Compound 4f, N-(3-ethylphenyl)-2-((3-(4-(N-(2-((3-ethylphenyl)amino)-2-oxoethyl)sulfamoyl)-phe-nyl)-8-methoxy-4-oxo-3,4-dihydroquinazolin-2yl)thio)acetamide]",downregulated in a dose-dependent manner
2,COc1cccc2c(=O)n(-c3ccc(S(=O)(=O)NCC(=O)Nc4ccc(C)cc4)cc3)c(SCC(=O)Nc3ccc(C)cc3)nc12 [Compound 4d],downregulated in a dose-dependent manner
